Data published in publication PMC1925066, “Optical biosensor differentiates signaling of endogenous PAR1 and PAR2 in A431 cells” (BMC Cell Biology, 2007).
Where a SMILES comes first, the peptide text is derived from it.

Tests used:
[1] = system: endogenous PAR1 and PAR2 in A431 cells; test: Fluo-3 Ca2+ mobilization (Ca2+ flux) assay in quiescent A431 cells; format: cell-based, human; details: for maximal [Ca^2+]i elevation: SFLLR-amide at 80 μM; for responsiveness (Ca^2+ mobilization) after pre-stimulation with thrombin: thrombin 40 unit/ml first; for Ca^2+ mobilization response after pre-stimulation with trypsin: trypsin 200 nM first, repeated stimulation separated by 6 min; for rapid and transient increase in intracellular Ca^2+: quiescent A431 cells
Protocol: (§1) Human epidermoid carcinoma A431 cells ([…]) were grown in Dulbecco's modified Eagle's medium (DMEM) supplemented with 10% fetal bovine serum (FBS), 4.5 g/liter glucose, 2 mM glutamine, and antibiotics. ~5 × 10^4 cells at passage 3 to 8 suspended in 200 μl the DMEM medium containing 10% FBS were placed in each well of a 96well microplate, and were cultured at 37°C under air/5% CO2 for ~2 days, followed by ~20 hr starvation through continuously culturing in the serum-free DMEM.
Cells were grown in Costar™ 96well clear cell culture microplates. After starvation, the cells were washed with 1× HBSS (1× regular Hank's balanced salt solution, 20 mM HEPES buffer, pH 7.0) in the presence of 2.5 mM probenicid, and labeled in the same buffer containing 4 μM Fluo-3 for 1 hour at room temperature. The cells were then washed twice with buffer, maintained with 100 μl 1× HBSS containing 2.5 mM probenicid. The assay was initiated by transferring 50 μl PAR agonist solution to the cell plate, and calcium signal was recorded over 6 minutes with a 6 sec interval using HTS7000 BioAssay Reader (PerkinElmer Life Science, Boston, MA). The fluorescent intensity before stimulation was recorded and used as a baseline. The percentage increase in fluorescence intensity after stimulation, relative to the baseline fluorescence, was analyzed and used directly as a measure for the increase of intracellular Ca^2+ level induced by PAR agonists.
(§2) Unless specifically mentioned, three replicates were carried out for each measurement or each compound. The standard deviation was derived from these measurements (n = 3). […] All dose-dependent responses were analyzed using non-linear regression method with the Prism software (Graph Pad).

[2] = system: endogenous PAR1 and PAR2 in A431 cells; test: MRCAT resonant waveguide grating biosensor DMR assay in quiescent A431 cells; format: cell-based, human; details: for effect of preceding stimulation on trypsin-induced DMR signal: trypsin 200 nM; for desensitization of trypsin-treated cells (DMR signal): trypsin 200 nM first, repeated stimulation separated by ~1 hr; for Gq-type DMR signal: quiescent A431 cells, 20 μM
Protocol: as §1
(§3) Corning® Epic™ angular interrogation system with transverse magnetic or p-polarized TM0 mode was used for all studies. The detailed instrumental setup and assay protocols had been previously described. Briefly, all compound solutions were prepared using 1 × HBSS containing minimal amount of dimethyl sulfoxide, while the starved cells were washed and maintained with 100 μl the serum-free DMEM. The cells were then treated with 50 μl 1 × HBSS buffered solution in the absence and presence of a compound, followed by stimulation with ligand solutions. The cellular responses were monitored in real time throughout the assays.
as §2

[3] = system: cell surface cholesterol of A431 cells; test: Effect of cholesterol depletion (cyclodextrin pre-treatment) on agonist-induced Ca2+ mobilization; format: cell-based, human; details: for IC50: one-phase decay fit
Excerpt: Since the physiological significance of co-expression of two receptors in A431 is unclear, we were interested in the possibility of differentiated regulation of PAR1 and PAR2 signaling. A common mechanism for the cell to regulate and differentiate receptor signaling is compartmentalization of receptors and/or their signaling components. Amassing evidences support the hypothesis that there are many cholesterol-rich microdomains at the cell surface membrane, although their characteristics are still under extensive investigations. Such microdomain is believed to enable the sorting and segregation of receptors and their signaling cascades, thus regulating cell signaling. Methyl-β-cyclodextrin (mβCD) has been widely used to extract cell surface choleterol primarily through effluxing, thus disrupting these cholesterol-rich microdomains. Thus, we examined the effect of cholesterol depletion by mβCD on both Ca^2+ mobilization and DMR responses induced by thrombin and trypsin. […] Both dose-dependent inhibition curves appeared fit well with a one-phase decay non-linear regression, leading to an almost identical half-concentration (C1/2 of ~1.5 mM) of mβCD. This is consistent with the fact that mβCD results in rapid effluxing of cell membrane cholesterol molecules; and the amount of remain cell surface cholesterol depends on the concentration of mβCD in solution [27]. The higher concentration mβCD is, the less cholesterol is retained at the cell surface membrane. […]
(§4) Cells were grown in Costar™ 96well clear cell culture microplates. […] The assay was initiated by transferring 50 μl PAR agonist solution to the cell plate, and calcium signal was recorded over 6 minutes with a 6 sec interval using HTS7000 BioAssay Reader (PerkinElmer Life Science, Boston, MA). The fluorescent intensity before stimulation was recorded and used as a baseline. The percentage increase in fluorescence intensity after stimulation, relative to the baseline fluorescence, was analyzed and used directly as a measure for the increase of intracellular Ca^2+ level induced by PAR agonists.

[4] = system: cell surface cholesterol of A431 cells; test: Effect of cholesterol depletion (cyclodextrin pre-treatment) on agonist-induced DMR signals; format: cell-based, human
Protocol: Similarly, the mβCD pre-treatment also led to a dose-dependent attenuation of the DMR signals induced by thrombin or trypsin (Fig. 7). However, there is a clear distinction between the inhibition curves of trypsin- and thrombin-induced DMR signals by mβCD. […] As expected, αCD up to 8 mM had little effect on both agonist-induced DMR responses. […] A23187 is a Ca^2+ ionophore, and is able to release stored Ca^2+ from the endoplasmic reticulum in cells.
Figure 7 Cholesterol removal attenuates the agonist-induced DMR signals. mβCD was used to deplete cell surface cholesterol. Its effect on the amplitudes of the P-DMR events induced by (a) thrombin (40 unit/ml) or (b) trypsin (200 nM) was analyzed. In comparison, the effect of αCD was also included. (c) The DMR signals of A431 cells induced by A23187 without or with the pre-treatment with 5 mM mβCD.
as §3

[5] = system: A431 cells; test: Cell toxicity / cell detachment from the biosensor surface; format: cell-based, human; details: high doses (>8 mM)
[6] = system: EGFR in A431 cells; test: Interference of EGFR activation with PAR signaling, Ca2+ mobilization; format: cell-based, human; details: EGF 100 nM; trypsin 100 nM, thrombin 40 unit/ml
Excerpt: (§5) A431 cells express large numbers of EGF receptors. AG1478 is a potent and selective EGFR tyrosine kinase inhibitor. It is also known that cholesterol removal by mβCD triggers a ligand-independent transactivation of EGFR in A431 cells. Thus, we were interested the interference of EGFR activation with PAR signaling. The preceding stimulation with EGF had little effect on the Ca^2+ mobilization induced by trypsin (Fig. 9a) or thrombin (data not shown).
(§6) Figure 9 The effect of preceding EGF stimulation on PAR signaling. (a) The Ca^2+ mobilization. (b, c) The DMR signals. The ligands were EGF (100 nM), trypsin (100 nM), and thrombin (40 unit/ml). The cell responses with the pre-treatment with the HBSS only were also included as control.
as §4

[7] = system: EGFR in A431 cells; test: Interference of EGFR activation with PAR signaling, DMR signal; format: cell-based, human
Excerpt: as §5, §6, §3

[8] = system: EGFR in A431 cells; design: method as in PMID 16766609; details: blockage of EGFR tyrosine kinase activity in A431; cited from earlier work
[9] = 100 nM, trypsin 100 nM, thrombin 40 unit/ml

For CC[C@H](C)[C@H](NC(=O)[C@H](CC(C)C)NC(=O)[C@@H](N)CO)C(=O)NCC(=O)N[C@@H](CCCCN)C(=O)N[C@H](C(N)=O)C(C)C [SLIGKV-amide] (H-SLIGKV-NH2; N-terminus assumed), the “maximal [Ca^2+]i elevation” value ([1]; A431 cells) was 52 ± 6%, the EC50 ([1]; A431 cells, read-out: EC50 (n = 3) Ca^2+ flux assay) was 3.8 ± 0.4 µM and the “effect of preceding stimulation on trypsin-induced Ca^2+ mobilization” value ([1]; peptide 20 μM first, then trypsin 200 nM, separated by 6 min) was “partially attenuated”. For the same molecule, the “responsiveness (Ca^2+ mobilization) after pre-stimulation with thrombin” value ([1]; separated by 6 min) was “not”, the “Ca^2+ mobilization response after pre-stimulation with trypsin” value [1] was “completely blocked” and the EC50 ([2]; A431 cells, amplitude of N-DMR event, read-out: EC50 (n = 3) N-DMR) was 9.1 ± 2.2 µM. The EC50 ([2]; A431 cells, amplitude of P-DMR event, read-out: EC50 (n = 3) P-DMR) was 6.1 ± 1 µM, the “DMR signals in cells with or without pre-stimulation with thrombin” value ([2]; separated by ~1 hr) was “almost identical DMR signals” and the “effect of preceding stimulation on trypsin-induced DMR signal” value ([2]; separated by ~1 hr) was “only partially attenuated”. For the same molecule, the “desensitization of trypsin-treated cells (DMR signal)” value (shortened to “desensitization”) [2] was “only partially”.

In the case of OC[C@H]1O[C@@H]2O[C@H]3[C@H](O)[C@@H](O)[C@@H](O[C@H]4[C@H](O)[C@@H](O)[C@@H](O[C@H]5[C@H](O)[C@@H](O)[C@@H](O[C@H]6[C@H](O)[C@@H](O)[C@@H](O[C@H]7[C@H](O)[C@@H](O)[C@@H](O[C@H]1[C@H](O)[C@H]2O)O[C@@H]7CO)O[C@@H]6CO)O[C@@H]5CO)O[C@@H]4CO)O[C@@H]3CO [αCD, α-cyclodextrin], the “effect on trypsin and thrombin-induced Ca^2+ mobilization responses” value ([3]; up to 8 mM) is reported as “little effect”, the “effect on both agonist-induced (thrombin, trypsin) DMR responses” value ([4]; up to 8 mM) is reported as “little effect” and the “cell toxicity and cell detachment from the biosensor surface” value [5] is reported as “detectable cell toxicity”.

With GYPGQV the “rapid and transient increase in intracellular Ca^2+” value [1] was “only PAR1 and PAR2 agonists resulted in” and the “Gq-type DMR signal” value [2] was “only PAR1 and PAR2 agonists resulted in”.

With “epidermal growth factor (NSDSECPLSHDGYCLHDGVCMYIEALDKYACNCVVGYIGERCQYRDLKWWELR; UniProt P01133 971-1023, looked up) [EGF, epidermal growth factor, purchased from Sigma]” the “effect of preceding stimulation on Ca^2+ mobilization induced by trypsin or thrombin” value [6] was “little effect”, the “effect on N-DMR event induced by either trypsin or thrombin” value [7, 9] was “almost completely inhibited” and the “effect on P-DMR event induced by either trypsin or thrombin” value [7, 9] was “only slightly attenuated”.

With TFRGAP the “rapid and transient increase in intracellular Ca^2+” value [1] was “only PAR1 and PAR2 agonists resulted in” and the “Gq-type DMR signal” value [2] was “only PAR1 and PAR2 agonists resulted in”.

For “Thrombin: serine protease, PAR1 agonist, purchased from Sigma”, the “EC50 (n = 3) Ca^2+ flux assay” value ([1]; A431 cells) was 6.0 ± 1.0 unit/ml, the “maximal [Ca^2+]i elevation” value ([1]; A431 cells) was 48 ± 4% and the “responsiveness (Ca^2+ mobilization) after pre-stimulation with thrombin” value ([1]; separated by 6 min) was “completely inhibited”. For the same molecule, the “Ca^2+ mobilization response after pre-stimulation with trypsin” value [1] was “completely blocked”, the “EC50 (n = 3) N-DMR” value ([2]; A431 cells, amplitude of N-DMR event) was 11.0 ± 1.9 unit/ml and the “EC50 (n = 3) P-DMR” value ([2]; A431 cells, amplitude of P-DMR event) was 9.6 ± 2.0 unit/ml. For the same molecule, the “effect of preceding stimulation on trypsin-induced DMR signal” value ([2]; separated by ~1 hr) was “only partially attenuated” and the “desensitization” value [2] was “completely desensitized”.

In the case of Methyl-β-cyclodextrin [mβCD], the IC50 ([3]; thrombin 40 unit/ml, read-out: half-concentration (C1/2) for suppression of thrombin-induced Ca^2+ mobilization) is reported as ~1500 µM, the IC50 ([3]; trypsin 200 nM, read-out: half-concentration (C1/2) for suppression of trypsin-induced Ca^2+ mobilization) is reported as ~1500 µM and the “effect on DMR signal induced by 5 μM A23187” value ([4]; pre-treatment at 5 mM) is reported as “little effect”. It also gave an IC50 ([4]; thrombin 40 unit/ml, P-DMR amplitude, read-out: C1/2 for suppression of thrombin-induced DMR) of 1200 ± 300 µM, an IC50 ([4]; trypsin 200 nM, 2-phase decay, read-out: C1/2 for inhibition of trypsin-mediated DMR, first phase) of 5000 ± 1000 µM and an IC50 ([4]; trypsin 200 nM, 2-phase decay, read-out: C1/2 for inhibition of trypsin-mediated DMR, second phase) of 11000 ± 2000 µM.

For COc1cc2ncnc(Nc3cccc(Cl)c3)c2cc1OC [AG1478], the “effect of pre-treatment on inhibition of trypsin-induced DMR by cholesterol depletion” value ([7]; data not shown) is given as “did not counter the inhibitory effect” and the “effect on trypsin-induced DMR signal” value [8] is given as “partially attenuated”.

With “bradykinin (RPPGFSPFR; Bradykinin; UniProt P01042 381-389, looked up) [agonist for bradykinin B2 receptor]” the “Ca^2+ mobilization response after pre-stimulation with PAR agonists” value ([1]; bradykinin 100 nM, separated by 6 min) was “neither of PAR agonists examined had any effect”, the “effect of preceding stimulation on DMR signal induced by any PAR agonist” value ([2]; bradykinin 100 nM first, separated by ~1 hr) was “no obvious effect” and the “desensitization” value [2] was “not”.
